The record followed here is ChEMBL document CHEMBL1136942, “Optimization of 5-phenyl-3-pyridinecarbonitriles as PKCtheta inhibitors” (Bioorg Med Chem Lett, 2009).

Each structure is given as a SMILES string. ≈ marks a conversion by molar mass, not a printed value. A value given as a limit tells only on which side of the number the result lay.

Series [1] deals with Protein kinase C delta type (Homo sapiens, UniProt Q05655). The experiment in a line: Inhibition of human PKCdelta by IMAP assay.
Series [2] concerns the target Protein kinase C theta type (Homo sapiens, UniProt Q04759). The experiment in a line: Inhibition of human PKCtheta by IMAP assay.
The nature of series [3]: Inhibition of IKK.
The target of series [4] is Protein kinase C eta type (Homo sapiens, UniProt P24723). The series can be described thus: Inhibition of human PKCeta by IMAP assay.
Protein kinase C eta type, sequence (P24723 whole entry): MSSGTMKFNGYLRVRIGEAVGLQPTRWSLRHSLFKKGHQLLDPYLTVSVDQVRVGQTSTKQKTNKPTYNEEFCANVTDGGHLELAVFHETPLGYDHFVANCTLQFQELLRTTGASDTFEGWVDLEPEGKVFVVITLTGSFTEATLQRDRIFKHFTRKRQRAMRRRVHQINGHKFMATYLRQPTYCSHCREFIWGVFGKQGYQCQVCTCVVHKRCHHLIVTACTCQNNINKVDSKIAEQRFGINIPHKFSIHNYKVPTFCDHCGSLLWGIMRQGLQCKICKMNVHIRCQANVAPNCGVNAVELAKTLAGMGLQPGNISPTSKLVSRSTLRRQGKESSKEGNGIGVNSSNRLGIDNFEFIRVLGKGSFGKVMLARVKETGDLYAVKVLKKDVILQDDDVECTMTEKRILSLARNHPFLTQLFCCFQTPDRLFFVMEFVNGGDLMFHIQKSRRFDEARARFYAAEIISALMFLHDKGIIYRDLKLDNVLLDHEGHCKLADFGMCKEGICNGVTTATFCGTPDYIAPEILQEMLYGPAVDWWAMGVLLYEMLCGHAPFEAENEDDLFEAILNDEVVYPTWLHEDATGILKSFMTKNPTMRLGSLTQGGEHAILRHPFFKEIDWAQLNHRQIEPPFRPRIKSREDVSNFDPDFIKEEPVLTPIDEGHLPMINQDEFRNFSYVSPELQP
The target in series [5] is Tyrosine-protein kinase Lck (Homo sapiens, UniProt P06239). The series can be described thus: Inhibition of Lck.
Tyrosine-protein kinase Lck, sequence (P06239 whole entry): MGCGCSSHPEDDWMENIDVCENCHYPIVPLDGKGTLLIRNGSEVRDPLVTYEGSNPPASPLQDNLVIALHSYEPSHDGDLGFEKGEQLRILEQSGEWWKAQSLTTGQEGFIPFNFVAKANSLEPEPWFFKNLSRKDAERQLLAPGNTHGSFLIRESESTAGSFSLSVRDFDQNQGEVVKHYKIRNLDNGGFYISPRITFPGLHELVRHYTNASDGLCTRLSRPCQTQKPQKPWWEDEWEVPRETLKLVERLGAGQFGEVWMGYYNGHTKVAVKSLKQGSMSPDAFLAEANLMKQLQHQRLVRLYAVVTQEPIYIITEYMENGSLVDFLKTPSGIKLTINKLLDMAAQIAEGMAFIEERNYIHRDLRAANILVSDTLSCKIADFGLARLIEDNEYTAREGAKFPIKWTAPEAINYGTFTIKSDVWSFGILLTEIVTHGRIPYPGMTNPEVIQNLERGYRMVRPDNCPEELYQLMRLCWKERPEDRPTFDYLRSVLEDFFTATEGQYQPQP
For series [6], the target named is T1, Protein kinase C zeta type (Homo sapiens, UniProt Q05513).
T1 sequence (Q05513 whole entry): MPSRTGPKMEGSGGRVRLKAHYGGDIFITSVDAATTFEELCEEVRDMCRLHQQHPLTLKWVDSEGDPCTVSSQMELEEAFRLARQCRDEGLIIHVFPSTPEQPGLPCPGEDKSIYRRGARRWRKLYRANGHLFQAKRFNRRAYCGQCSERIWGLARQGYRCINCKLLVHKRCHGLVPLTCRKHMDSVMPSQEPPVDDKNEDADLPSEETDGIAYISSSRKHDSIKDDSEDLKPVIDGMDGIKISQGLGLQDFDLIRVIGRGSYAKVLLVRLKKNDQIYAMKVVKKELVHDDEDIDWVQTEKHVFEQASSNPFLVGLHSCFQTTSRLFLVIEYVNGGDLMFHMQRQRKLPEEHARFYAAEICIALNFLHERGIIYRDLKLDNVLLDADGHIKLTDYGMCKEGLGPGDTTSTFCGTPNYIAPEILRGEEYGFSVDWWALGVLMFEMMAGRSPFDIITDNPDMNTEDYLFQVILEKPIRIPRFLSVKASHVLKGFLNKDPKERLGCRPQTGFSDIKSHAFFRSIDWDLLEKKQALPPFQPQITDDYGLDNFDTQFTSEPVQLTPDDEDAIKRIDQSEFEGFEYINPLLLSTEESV
The experiment in a line: Inhibition of human PKCzeta by IMAP assay.

Series [7] can be described thus: Metabolic stability in dog liver microsomes assessed as half life. In kind it is ADME, Canis lupus familiaris, Microsome. Background: Microsomes from liver hold many membrane-bound enzymes, among them those of drug oxidation.
The nature of series [8]: Metabolic stability in monkey liver microsomes assessed as half life. The class given is ADME, Macaca mulatta, Microsome. The note with it: rhesus monkey.
Series [9] has as its target T2, Protein kinase C epsilon type (Homo sapiens, UniProt Q02156).
T2 sequence (Q02156 whole entry): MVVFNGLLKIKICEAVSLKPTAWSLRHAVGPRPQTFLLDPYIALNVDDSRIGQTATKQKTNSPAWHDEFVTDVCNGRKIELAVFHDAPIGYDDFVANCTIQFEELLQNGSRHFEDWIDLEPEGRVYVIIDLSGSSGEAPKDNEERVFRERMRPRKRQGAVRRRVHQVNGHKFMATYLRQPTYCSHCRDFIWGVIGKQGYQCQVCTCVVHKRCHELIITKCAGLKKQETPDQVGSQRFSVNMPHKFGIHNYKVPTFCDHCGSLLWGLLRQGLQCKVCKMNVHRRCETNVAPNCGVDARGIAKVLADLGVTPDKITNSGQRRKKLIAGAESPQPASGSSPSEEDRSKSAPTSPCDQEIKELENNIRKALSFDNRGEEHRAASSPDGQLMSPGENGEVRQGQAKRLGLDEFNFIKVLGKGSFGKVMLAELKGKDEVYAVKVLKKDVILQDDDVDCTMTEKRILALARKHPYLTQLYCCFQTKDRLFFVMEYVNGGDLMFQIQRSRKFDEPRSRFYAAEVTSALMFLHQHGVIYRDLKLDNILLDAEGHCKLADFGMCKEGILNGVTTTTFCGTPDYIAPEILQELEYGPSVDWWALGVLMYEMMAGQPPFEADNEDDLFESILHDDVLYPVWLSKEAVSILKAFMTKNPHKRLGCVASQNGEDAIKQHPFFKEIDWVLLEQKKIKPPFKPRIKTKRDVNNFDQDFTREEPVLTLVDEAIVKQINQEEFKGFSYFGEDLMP
The series can be described thus: Inhibition of human PKCepsilon by IMAP assay.

The subject of series [10] is T-cell. The experiment in a line: Blockade of anti-CD3 and anti-CD28 antibody-induced IL2 expression in PKC theta knockout mouse T cells after 20 to 24 hrs by ELISA. The class given is functional, cell-based. On the technique in general: In an ELISA, binding on a coated surface is turned into a signal by an enzyme label.
Series [11] can be described thus: Metabolic stability in mouse liver microsomes assessed as half life. In kind it is ADME, Microsome.
Series [12] is described as follows: Inhibition of p38.
Series [13] in a line: Solubility at pH 7.4. The note with it: buffer. In kind it is physicochemical.
In series [14] the test system is T-cell. The series can be described thus: Blockade of anti-CD3 and anti-CD28 antibody-induced IL2 expression in wild type C57BL/6 mouse T cells after 20 to 24 hrs by ELISA. In kind it is functional, cell-based. The note with it: C57BL/6, T-cell.
In series [15] the target is Protein kinase C beta type (Homo sapiens, UniProt P05771). The series can be described thus: Inhibition of human PKCbeta by IMAP assay.
Protein kinase C beta type, sequence (P05771 whole entry): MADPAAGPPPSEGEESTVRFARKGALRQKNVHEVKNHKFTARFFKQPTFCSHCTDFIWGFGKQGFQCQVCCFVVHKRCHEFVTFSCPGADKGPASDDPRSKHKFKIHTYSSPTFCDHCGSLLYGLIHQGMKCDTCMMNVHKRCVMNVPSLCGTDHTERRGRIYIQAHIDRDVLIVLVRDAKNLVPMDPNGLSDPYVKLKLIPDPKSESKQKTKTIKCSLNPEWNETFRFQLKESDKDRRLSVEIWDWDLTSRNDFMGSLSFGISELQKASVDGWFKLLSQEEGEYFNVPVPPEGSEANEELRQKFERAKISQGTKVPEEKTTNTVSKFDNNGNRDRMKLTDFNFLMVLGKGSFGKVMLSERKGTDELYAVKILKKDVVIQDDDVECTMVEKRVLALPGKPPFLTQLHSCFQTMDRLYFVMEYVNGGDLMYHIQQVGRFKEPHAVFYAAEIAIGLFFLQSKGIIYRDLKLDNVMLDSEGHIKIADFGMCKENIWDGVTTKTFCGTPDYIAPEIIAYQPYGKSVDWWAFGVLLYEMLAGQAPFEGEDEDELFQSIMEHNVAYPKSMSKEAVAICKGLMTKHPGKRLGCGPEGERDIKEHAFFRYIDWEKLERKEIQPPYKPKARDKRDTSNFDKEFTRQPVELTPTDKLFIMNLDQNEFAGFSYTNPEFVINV
Series [16] concerns the target Rho-associated protein kinase 1 (Homo sapiens, UniProt Q13464). The experiment in a line: Inhibition of ROCK1.
A short description of series [17]: Membrane permeability by PAMPA. The note with it: read-out: permeability. The class given is ADME. (In general: In PAMPA a lipid-coated filter parts donor from acceptor wells.)
Series [18] addresses Tyrosine-protein kinase Lyn (Homo sapiens, UniProt P07948). The experiment in a line: Inhibition of Lyn.
Series [19] can be described thus: Metabolic stability in human liver microsomes assessed as half life. In kind it is ADME, Microsome.
Series [20] can be described thus: Inhibition of PDGFR.
In series [21] the target is MAP kinase-activated protein kinase 2 (Homo sapiens, UniProt P49137). The series can be described thus: Inhibition of MK2.
MAP kinase-activated protein kinase 2, sequence (P49137 whole entry): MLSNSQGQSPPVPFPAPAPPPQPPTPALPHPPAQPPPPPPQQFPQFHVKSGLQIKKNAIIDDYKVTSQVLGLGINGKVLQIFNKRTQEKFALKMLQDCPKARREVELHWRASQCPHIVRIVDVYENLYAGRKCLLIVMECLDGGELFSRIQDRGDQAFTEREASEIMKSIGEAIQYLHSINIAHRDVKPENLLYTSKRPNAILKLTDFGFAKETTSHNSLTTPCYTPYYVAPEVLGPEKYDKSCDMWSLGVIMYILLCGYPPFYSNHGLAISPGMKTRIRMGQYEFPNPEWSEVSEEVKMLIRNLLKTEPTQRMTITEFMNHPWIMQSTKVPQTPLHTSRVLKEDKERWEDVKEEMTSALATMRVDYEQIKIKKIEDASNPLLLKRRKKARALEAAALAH
Series [22] can be described thus: Metabolic stability in rat liver microsomes assessed as half life. In kind it is ADME, Microsome.

By IC50 is commonly meant the concentration needed to halve the response being measured. Broadly, the half-life is the time needed for the level to fall by half in the phase considered. Broadly, the solubility is how much of the substance goes into solution per volume.

Protein kinase C theta type, sequence (Q04759 whole entry): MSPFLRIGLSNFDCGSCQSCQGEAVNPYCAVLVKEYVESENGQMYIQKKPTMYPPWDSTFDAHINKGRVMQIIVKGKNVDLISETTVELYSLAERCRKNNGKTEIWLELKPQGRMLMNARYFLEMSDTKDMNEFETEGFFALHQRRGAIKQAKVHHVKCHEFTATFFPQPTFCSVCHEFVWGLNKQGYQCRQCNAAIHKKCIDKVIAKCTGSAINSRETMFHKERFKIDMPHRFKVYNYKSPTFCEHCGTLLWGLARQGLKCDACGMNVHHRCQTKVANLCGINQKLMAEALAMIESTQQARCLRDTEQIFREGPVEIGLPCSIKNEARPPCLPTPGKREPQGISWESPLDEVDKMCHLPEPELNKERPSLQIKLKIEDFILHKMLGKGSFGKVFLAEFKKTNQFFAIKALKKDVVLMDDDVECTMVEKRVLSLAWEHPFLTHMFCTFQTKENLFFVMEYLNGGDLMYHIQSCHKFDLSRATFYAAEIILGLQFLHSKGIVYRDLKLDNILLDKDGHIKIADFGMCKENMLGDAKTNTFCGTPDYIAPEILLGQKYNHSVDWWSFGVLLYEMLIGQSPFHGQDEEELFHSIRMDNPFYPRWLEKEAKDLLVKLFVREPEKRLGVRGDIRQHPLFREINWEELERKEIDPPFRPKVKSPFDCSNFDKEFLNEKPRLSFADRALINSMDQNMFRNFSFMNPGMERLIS
Protein kinase C delta type, sequence (Q05655 whole entry): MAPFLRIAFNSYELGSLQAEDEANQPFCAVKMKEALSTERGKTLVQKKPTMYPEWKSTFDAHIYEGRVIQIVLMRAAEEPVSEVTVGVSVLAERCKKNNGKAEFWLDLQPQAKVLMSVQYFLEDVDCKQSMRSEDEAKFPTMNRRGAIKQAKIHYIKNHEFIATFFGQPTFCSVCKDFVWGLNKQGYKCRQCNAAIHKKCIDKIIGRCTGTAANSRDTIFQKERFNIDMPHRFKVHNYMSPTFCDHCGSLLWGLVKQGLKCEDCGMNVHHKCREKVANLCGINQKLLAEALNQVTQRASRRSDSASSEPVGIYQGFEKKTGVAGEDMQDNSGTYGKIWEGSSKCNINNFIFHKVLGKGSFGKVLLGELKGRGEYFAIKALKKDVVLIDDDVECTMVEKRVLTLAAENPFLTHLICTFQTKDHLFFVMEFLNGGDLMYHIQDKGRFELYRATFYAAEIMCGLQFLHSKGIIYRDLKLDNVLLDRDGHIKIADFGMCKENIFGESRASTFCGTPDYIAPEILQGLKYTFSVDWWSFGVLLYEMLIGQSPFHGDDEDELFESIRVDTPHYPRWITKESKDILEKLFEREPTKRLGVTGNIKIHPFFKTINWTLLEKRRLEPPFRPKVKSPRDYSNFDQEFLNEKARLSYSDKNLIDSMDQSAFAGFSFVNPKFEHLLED
Rho-associated protein kinase 1, sequence (Q13464 whole entry): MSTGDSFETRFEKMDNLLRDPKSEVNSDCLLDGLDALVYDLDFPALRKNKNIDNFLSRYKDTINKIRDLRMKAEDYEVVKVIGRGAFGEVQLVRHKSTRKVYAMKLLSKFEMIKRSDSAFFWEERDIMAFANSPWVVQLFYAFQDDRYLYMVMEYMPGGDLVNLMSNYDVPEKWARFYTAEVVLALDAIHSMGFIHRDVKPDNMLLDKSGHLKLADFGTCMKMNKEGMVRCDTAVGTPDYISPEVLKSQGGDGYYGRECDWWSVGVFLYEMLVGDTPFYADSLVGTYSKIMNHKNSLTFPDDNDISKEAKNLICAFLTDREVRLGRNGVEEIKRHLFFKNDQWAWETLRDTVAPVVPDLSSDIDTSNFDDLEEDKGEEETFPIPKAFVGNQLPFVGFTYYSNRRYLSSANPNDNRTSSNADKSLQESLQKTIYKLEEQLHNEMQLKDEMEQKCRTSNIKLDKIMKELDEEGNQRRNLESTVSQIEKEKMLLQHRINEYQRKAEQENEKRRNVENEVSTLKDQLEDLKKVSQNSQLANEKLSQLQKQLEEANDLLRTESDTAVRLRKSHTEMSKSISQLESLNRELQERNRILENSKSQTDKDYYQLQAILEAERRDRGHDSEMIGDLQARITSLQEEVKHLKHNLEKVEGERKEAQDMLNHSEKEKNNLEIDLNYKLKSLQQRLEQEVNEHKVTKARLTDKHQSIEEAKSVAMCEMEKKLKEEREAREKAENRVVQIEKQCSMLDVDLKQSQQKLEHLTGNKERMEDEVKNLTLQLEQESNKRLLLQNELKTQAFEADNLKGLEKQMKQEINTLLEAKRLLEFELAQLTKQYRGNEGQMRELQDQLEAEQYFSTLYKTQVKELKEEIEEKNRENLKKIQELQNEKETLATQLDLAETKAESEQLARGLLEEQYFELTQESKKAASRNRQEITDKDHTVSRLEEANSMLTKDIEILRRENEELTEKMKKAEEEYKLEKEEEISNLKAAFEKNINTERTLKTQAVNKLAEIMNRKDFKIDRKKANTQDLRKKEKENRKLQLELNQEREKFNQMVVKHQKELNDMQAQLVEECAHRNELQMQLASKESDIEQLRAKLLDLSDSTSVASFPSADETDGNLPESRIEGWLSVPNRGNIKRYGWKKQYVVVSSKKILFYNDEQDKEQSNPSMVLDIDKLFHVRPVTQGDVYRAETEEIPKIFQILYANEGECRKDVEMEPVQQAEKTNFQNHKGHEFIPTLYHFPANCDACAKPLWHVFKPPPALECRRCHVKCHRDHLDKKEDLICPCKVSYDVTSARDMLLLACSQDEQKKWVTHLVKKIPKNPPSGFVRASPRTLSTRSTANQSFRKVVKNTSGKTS

In series [1], `Cc1cc2[nH]ccc2cc1Nc1c(C#N)cncc1-c1ccc(OCCN2CCN(C)CC2)cc1` showed an IC50 of 130 nM.
Same read-out and setting: then `Cc1c(Nc2c(C#N)cncc2-c2ccc(OCCN3CCN(CCO)CC3)cc2)ccc2[nH]ccc12`, with 29 nM; and `Cc1c(Nc2c(C#N)cncc2-c2ccc(OCCN3CCC(N4CCCC4)CC3)cc2)ccc2[nH]ccc12`, with 30 nM.
`COc1ccc(-c2cncc(C#N)c2Nc2ccc3c(ccn3C)c2C)cc1OC`: the half-maximal inhibitory concentration (IC50) in series [2] came out at 260 nM; in series [1] it was 1400 nM.
In series [1], `COc1ccc(-c2cncc(C#N)c2Nc2cccc3[nH]ccc23)cc1OC` gave an IC50 of 62 nM.
For the compound `COc1ccc(-c2cncc(C#N)c2Nc2ccc3[nH]ccc3c2F)cc1OC`, the IC50 was 5.3 nM in series [2] and 69 nM in series [1].
With `COc1ccc(-c2cncc(C#N)c2Nc2cc(C)c3[nH]ccc3c2)cc1OC`, in [2], the 50% inhibitory concentration (IC50) came out at 120 nM.
`COc1ccc(-c2cncc(C#N)c2Nc2cc3cc[nH]c3cc2C)cc1OC`: the values for the IC50 in series [2] and in series [1] were 10.5 nM and 280 nM, respectively.
The compound `COc1cccc(-c2cncc(C#N)c2Nc2ccc3[nH]ccc3c2C)c1` came in with a half-inhibitory concentration (IC50) in series [1] of 210 nM.
On to `CCc1c(Nc2c(C#N)cncc2-c2ccc(OC)c(OC)c2)ccc2[nH]ccc12`, for which the IC50 in [2] is 55 nM; in [1], 980 nM.
As for `COc1ccccc1-c1cncc(C#N)c1Nc1ccc2[nH]ccc2c1C`, in series [1], 340 nM corresponded to half-maximal inhibition (IC50).
On to `Cc1c(Nc2c(C#N)cncc2-c2ccc(OCCN3CCOCC3)cc2)ccc2[nH]ccc12`, for which, in [1], the half-maximal inhibitory concentration (IC50) turned out to be 150 nM.
As to `CN1CCN(CCOc2ccc(-c3cncc(C#N)c3Nc3ccc4[nH]ccc4c3)cc2)CC1`, 160 nM corresponded to half-maximal inhibition in series [1] (IC50).
Turning to `COc1ccc(-c2cncc(C#N)c2Nc2ccc3[nH]ccc3c2C)cc1OC`, the IC50 in series [2] turned out to be 6.3 nM; in series [1], 81 nM.
In [2], `COc1ccc(-c2cncc(C#N)c2Nc2ccc3cc[nH]c3c2)cc1OC` showed an IC50 of 2300 nM.
In the case of `Cc1c(Nc2c(C#N)cncc2-c2ccc(OCCNCCN(C)C)cc2)ccc2[nH]ccc12`, the IC50 is 5.9 nM in series [2] and 18 nM in series [1].
In the case of `COc1ccc(-c2cncc(C#N)c2-c2ccc3[nH]ccc3c2)cc1OC`, the IC50 in series [2] was 1700 nM.
As to `Cc1c(Nc2c(C#N)cncc2-c2ccccc2)ccc2[nH]ccc12`, half-maximal inhibition in [1] (IC50) was put at 63 nM.
The compound `COc1ccc(-c2cncc(C#N)c2Oc2ccc3[nH]ccc3c2)cc1OC` returned an IC50 in series [2] of 1700 nM.
`COc1ccc(-c2cncc(C#N)c2N(C)c2ccc3[nH]ccc3c2)cc1OC` gave an IC50 in series [1] of 2100 nM.
Still for that read-out and setting: then `Cc1c(Nc2c(C#N)cncc2-c2ccc(OCCCN3CCN(C)CC3)cc2)ccc2[nH]ccc12`, with 110 nM.
Consider `CN1CCN(CCOc2ccc(-c3cncc(C#N)c3Nc3cccc4[nH]ccc34)cc2)CC1`, for which the IC50 in series [2] turned out to be 14 nM; in [1], 41 nM.
The matching figures for `COc1ccc(-c2cncc(C#N)c2Nc2ccc3[nH]ccc3c2C)cc1`: 5.6 nM and 85 nM.
The matching figures for `Cc1c(Nc2c(C#N)cncc2-c2ccc(OCCN3CCCC3)cc2)ccc2[nH]ccc12`: 4.5 nM and 28 nM.
The compound `COc1ccc(-c2cncc(C#N)c2Nc2ccc3[nH]ccc3c2OC)cc1OC` came in with an IC50 in series [1] of 350 nM.
As for `Cc1c(Nc2c(C#N)cncc2-c2ccc(OCCN3CCN(C)CC3)cc2)ccc2[nH]ccc12`, the IC50 was > 10000 nM in series [3]; 450 nM in [4]; > 10000 nM in [5]; 7.4 nM in series [2]; 51 nM in series [1]; > 100000 nM in [6]. Further, the IC50 in [9] is 54 nM; in series [10], > 15000 nM; in series [12], > 10000 nM; in series [14] it was 160 nM; in series [15], 22000 nM; in series [16], > 10000 nM. Moreover, the IC50 in series [18], in series [20] and in series [21] was > 10000 nM in each case. Moreover, the half-life in series [7], in [8], in [11], in [19] and in series [22] was < 15 min throughout. In series [13], this compound came in with a solubility of 67 µg/mL (≈ 144 µM). For the same compound, in series [17], the Papp came out at 0.28 ×10⁻⁶ cm/s.
